This assay concerns the target T1, catalytic domain of MMP-13 enzyme (Homo sapiens, UniProt P45452).
T1 construct: 10 μL of a 50 nM stock solution of catalytic domain of MMP-13 enzyme (produced by Alantos) is added; made in house
The experiment in a line: Assay for determining MMP-13 inhibition (fluorescent substrate). It is filed as biochemical. Conditions: Table 1, Summary of MMP-13 Activity for Compounds of Formula I. The method, then:
The MMP-13 inhibiting activity of the MMP-13 inhibiting compounds of the present invention may be measured using any suitable assay known in the art. A standard in vitro assay for MMP-13 inhibiting activity is described in Example 3000.
The typical assay for MMP-13 activity is carried out in assay buffer comprised of 50 mM Tris, pH 7.5, 150 mM NaCl, 5 mM CaCl2 and 0.05% Brij-35. Different concentrations of tested compounds are prepared in assay buffer in 50 μL aliquots. 10 μL of a 50 nM stock solution of catalytic domain of MMP-13 enzyme (produced by Alantos) is added to the compound solution. The mixture of enzyme and compound in assay buffer is thoroughly mixed and incubated for 10 min at room temperature. Upon the completion of incubation, the assay is started by addition of 40 μL of a 12.5 μM stock solution of MMP-13 fluorescent substrate (Calbiochem, Cat. No. 444235). The time-dependent increase in fluorescence is measured at the 320 nm excitation and 390 nm emission by automatic plate multireader. The IC50 values are calculated from the initial reaction rates.
One may read the IC50 as the midpoint of a concentration-inhibition curve. A high value points to weaker potency. For the molecule `CC(C(=O)Nc1cc(C(=O)NCc2ccc(F)cc2)ncn1)c1ccc(-c2nnn[nH]2)cc1` (centres unmarked), the half-maximal inhibitory concentration (IC50) is more than 0.005 µM.

For the molecule `CC(C)(C(=O)Nc1cc(C(=O)NCc2ccc(F)cc2)ncn1)c1ccc(-c2nnn[nH]2)cc1`, the IC50 was less than 1 µM.

For the molecule `N#Cc1ccc(CC(=O)Nc2cc(C(=O)NCc3ccc(F)cc3)ncn2)cc1`, the IC50 was less than 1 µM.

With `N#Cc1ccc(CNC(=O)c2cc(NC(=O)Cc3ccc4c(c3)OCO4)ncn2)cc1`, the IC50 is less than 1 µM.

Molecule `O=C(NCc1ccc(-c2nnn[nH]2)cc1)c1cc(NS(=O)(=O)Cc2ccccc2)ncn1` registered an IC50 of more than 0.005 µM.

`CS(=O)(=O)c1ccc(CC(=O)Nc2cc(C(=O)NCc3ccc(-c4nnn[nH]4)cc3)ncn2)cc1` yielded an IC50 of more than 0.005 µM.

`O=C(Cc1ccc2c(c1)CCO2)Nc1cc(C(=O)NCc2ccc(-c3nnn[nH]3)cc2)ncn1`: the IC50 is less than 1 µM.

On to `Cc1cc(CNC(=O)c2cc(NS(=O)(=O)Cc3ccc(-c4nn[nH]n4)cc3)ncn2)ccc1F`, for which the concentration for half-maximal inhibition (IC50) is less than 1 µM.

For the origin of these results see patent US20080021024A1, “Metalloprotease inhibitors” (Alantos Pharmaceuticals Holding, Inc., priority 2006, published 2008).
